The values below come from PMC11045757, “Group 3 medulloblastoma transcriptional networks collapse under domain specific EP300/CBP inhibition” (Nature Communications, 2024).

Structures are written as SMILES. Where “and” joins values, the source holds several entries; their conditions need not be identical. Identical values can stand only once. Like-named read-outs stand apart in the source and are kept apart here.

The subject of test [1] is HDMB03 (HDMBO3) group 3 medulloblastoma cells. Put plainly: CellTiter-Glo dose-response growth assay. To be noted: Homo sapiens, HD-MB03; HDMBO3 G3MB cell growth; read-out: IC50 (nM) HDMBO3. Format: cell-based. As to the method:
CellTiter-Glo assay was performed as per the manufacturer’s instructions, at the noted timepoint after compound treatment or plating. For Kelly, TE617T, RhJT, NCIH2122, NCIH650 and 143B, 500 cells were plated in normal growth media per well in a 384-well plate (Corning). HDMB03 and MB002 cells were plated in growth media at 500 cells/well in a 384-well plate. […] Cells were incubated for the noted timepoints prior to performing CellTiter-Glo assay as per the manufacturer’s instructions, and reading plates on an Envision 2104 microplate reader.
(In general: ATP-based viability assays read luminescence as a measure of living cells.)

For test [2], the system named is CBP bromodomain. Put plainly: Differential scanning fluorimetry (DSF) thermal shift. Format: binding. Particulars: ΔTm (CBP)/ΔTm(BRD4). As to the method:
(§1) After 18 h growth, the culture was harvested by centrifugation at 6000 × g for 25 min and stored at -80 °C. Harvested cell pellets were re-suspended in 50 mM Na/K phosphate buffer (pH 7.4) containing 100 mM NaCl, 40 mM imidazole, 0.01% w/v lysozyme and 0.01% v/v Triton X-100 at 4 °C for 1 h, subjected to sonication and the lysate was clarified by centrifugation (30,000 × g for 45 min at 4 °C). Proteins were purified by FPLC at 4 °C using columns and chromatography materials from GE Healthcare. […] Proteins were purified to homogeneity by size exclusion chromatography using Superdex 75 equilibrated with elution buffer (50 mM HEPES pH 7.5, 100 mM NaCl, 2 mM DTT). […] Pool fractions were combined, concentrated to 10–12 mg/ml, and aliquots were flash-frozen in liquid N2 and stored at −80 °C.
(§2) DSF experiments were performed with an Applied Biosystem StepOnePlus real-time PCR system (Thermo Fisher Scientific) using 96-well format plates, assayed in quadruplicate. For thermal shift determination, 5 μM protein was mixed with 100 μM compound in 50 mM HEPES, pH 7.5, 150 mM NaCl, 2 mM DTT, 2% DMSO, 5X SYPRO Orange (Thermo Fisher Scientific) in 20 μL reaction volumes.

Test [3] has as its target T1, CBP bromodomain (Homo sapiens, UniProt Q92793).
T1 construct: CBP (residues 1081-1197); 6xHis (cleaved yes); host or cells: E. coli BL21 (DE3) RIL
The test is described as above. Format: binding. Particulars: for ∆Tm (°C) CBP / ΔTm (°C) CBP: DSF; for ∆Tm (°C) CBP: 5 μM protein, 100 μM compound, three independent experiments, average ± SD; for DSF ΔTm (°C): Figure 3C, DSF (values equal CBP column). As to the method:
as §1, §2

A further test concerns the target T2, EP300 bromodomain (Homo sapiens, UniProt Q09472).
T2 construct: 6xHis (cleaved yes); host or cells: E. coli BL21 (DE3) RIL
T2 sequence (Q09472 1048-1161): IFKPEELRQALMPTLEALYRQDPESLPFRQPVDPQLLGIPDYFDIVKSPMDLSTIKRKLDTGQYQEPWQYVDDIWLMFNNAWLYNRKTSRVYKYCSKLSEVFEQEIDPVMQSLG
The test is described as above. Format: binding. To be noted: DSF; for ∆Tm (°C) EP300: 5 μM protein, 100 μM compound, three independent experiments, average ± SD; for ΔTm (°C) EP300: Figure 3B. As to the method:
(§3) At OD600 of 0.6, the culture was cooled down to 18 °C and induced with 0.1 mM IPTG. After 18 h growth, the culture was harvested by centrifugation at 6000 × g for 25 min and stored at -80 °C. Harvested cell pellets were re-suspended in 50 mM Na/K phosphate buffer (pH 7.4) containing 100 mM NaCl, 40 mM imidazole, 0.01% w/v lysozyme and 0.01% v/v Triton X-100 at 4 °C for 1 h, subjected to sonication and the lysate was clarified by centrifugation (30,000 × g for 45 min at 4 °C). Proteins were purified by FPLC at 4 °C using columns and chromatography materials from GE Healthcare. […] Proteins were purified to homogeneity by size exclusion chromatography using Superdex 75 equilibrated with elution buffer (50 mM HEPES pH 7.5, 100 mM NaCl, 2 mM DTT). All BRDs eluted as monomeric protein and were of crystallization grade quality (>95% purity as judged by SDS-PAGE). Pool fractions were combined, concentrated to 10–12 mg/ml, and aliquots were flash-frozen in liquid N2 and stored at −80 °C.
(§4) DSF experiments were performed with an Applied Biosystem StepOnePlus real-time PCR system (Thermo Fisher Scientific) using 96-well format plates, assayed in quadruplicate. For thermal shift determination, 5 μM protein was mixed with 100 μM compound in 50 mM HEPES, pH 7.5, 150 mM NaCl, 2 mM DTT, 2% DMSO, 5X SYPRO Orange (Thermo Fisher Scientific) in 20 μL reaction volumes. Reaction mixtures were heated from 25 to 95 °C at 1 °C/min with fluorescence readings every 0.5 °C at 610 nm. The observed thermal shift (ΔTm) was recorded as the difference between the Tm of sample and DMSO reference wells.

A further test has as its target T3, BRD4-BD1 (BRD4-1) (Homo sapiens, UniProt O60885).
T3 construct: BRD4-BD1 (residues 44-168); 6xHis (cleaved yes); host or cells: E. coli BL21 (DE3) RIL
The description is as above. The class given is binding. To be noted: DSF; for ∆Tm (°C) BRD4-1: 5 μM protein, 100 μM compound, three independent experiments, average ± SD; for ΔTm (°C) BRD4-BD1: Figure 3A. As to the method: as §3, §4

Test [4] has as its target GFP-tagged CBP bromodomain (Homo sapiens, UniProt Q92793). Put plainly: Microscale thermophoresis (MST). The class given is binding. As to the method: MST experiments were performed in a Monolith NT.115 Pico instrument (NanoTemper Technologies) following published procedures. […] MST traces were recorded using standard parameters: 5 s MST power off, 30 s MST power on and 5 s MST power off. Measurements were taken at -1-0 s (cold region) and 10 s (hot region) and data were analyzed using the NTAnalysis software.
For orientation: Microscale thermophoresis detects binding through changes in fluorescence in a small temperature gradient.

Where [5] appears, read: three independent MST experiments, average ± SD, read-out: Kd (nM) CBP.

Sequence of GFP-tagged CBP bromodomain (Q92793 1085-1192 limits assumed): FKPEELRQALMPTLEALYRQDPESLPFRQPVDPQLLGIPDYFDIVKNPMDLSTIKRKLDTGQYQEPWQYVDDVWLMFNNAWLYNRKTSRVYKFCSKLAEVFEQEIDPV
T1 sequence (Q92793 1081-1197): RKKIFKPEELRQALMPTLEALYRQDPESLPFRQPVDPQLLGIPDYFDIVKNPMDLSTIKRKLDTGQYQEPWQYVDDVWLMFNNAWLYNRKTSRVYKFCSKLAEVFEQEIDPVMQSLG

As a reminder, the IC50 is the concentration that gives 50% inhibition. Usually Kd stands for a measure of binding affinity in units of concentration. Turning to `COC1CCC(n2c(C3CCCC(=O)N3c3cc(C(F)(F)F)cc(C(F)(F)F)c3)nc3cc(-c4c(C)noc4C)ccc32)CC1` (stereo not drawn) [Compound 4], in test [1], the IC50 came out at 271 ± 62 nM. Moreover, in the test with CBP bromodomain [2], the “Ratio CBP/BRD4 of ∆Tm” value is reported as 4.7. The “∆Tm (°C) CBP” value at CBP bromodomain [3] is 9.9 ± 1.02 °C. In addition, the “ΔTm (°C) CBP” value on CBP bromodomain [3] (Figure 3A, CBP bromodomain) is 9.9 °C; at CBP bromodomain [3] (Figure 3B, CBP), 9.9 °C. Moreover, at CBP bromodomain [3], the “DSF ΔTm (°C)” value is 9.9 °C. In addition, the “∆Tm (°C) EP300” value on EP300 bromodomain stood at 9.2 ± 1.5 °C. For the same molecule, the “ΔTm (°C) EP300” value at EP300 bromodomain worked out at 9.2 °C. In addition, on BRD4-BD1 (BRD4-1), the “∆Tm (°C) BRD4-1” value amounted to 2.1 ± 0.96 °C. In addition, at BRD4-BD1 (BRD4-1), the “ΔTm (°C) BRD4-BD1” value came out at 2.1 °C. Moreover, the dissociation constant Kd in test [4] (Figure 3C, MST, read-out: MST Kd) is 116 nM; in test [4] (MST, single replicate run, target clGFP-CBPBRD, TargetConcentration 5e-8, MST-Power Medium, unit inferred, read-out: Kd (Fit Results, Fit Model: Kd)), 142 nM and 167 nM and 39.1 nM; in test [4] (setting [5]), 116 ± 68 nM. Besides, the “Response (Dose Response Curve)” value in test [4] (MST raw response, Dose 1.52588e-10, single replicate run, listed as iCBP-4) was 892.093 and 891.258 and 891.615; in test [4] (MST raw response, Dose 3.05176e-10, single replicate run, listed as iCBP-4) it was 892.272 and 892.058; in test [4] (MST raw response, Dose 6.10352e-10, single replicate run, listed as iCBP-4), 892.269 and 892.744 and 892.22; in test [4] (MST raw response, Dose 1.2207e-9, single replicate run, listed as iCBP-4), 892.399 and 891.675 and 892.288; in test [4] (MST raw response, Dose 2.44141e-9, single replicate run, listed as iCBP-4) it was 891.725 and 891.585 and 891.994; in test [4] (MST raw response, Dose 4.88281e-9, single replicate run, listed as iCBP-4), 891.567 and 892.575 and 891.165. Also, the “Response (Dose Response Curve)” value in test [4] (MST raw response, Dose 9.76563e-9, single replicate run, listed as iCBP-4) is 891.493 and 891.567 and 891.238; in test [4] (MST raw response, Dose 1.95313e-8, single replicate run, listed as iCBP-4) it was 891.688 and 891.424 and 891.76; in test [4] (MST raw response, Dose 3.90625e-8, single replicate run, listed as iCBP-4) it was 892.161 and 891.262 and 889.541; in test [4] (MST raw response, Dose 7.8125e-8, single replicate run, listed as iCBP-4) it was 890.263 and 890.555 and 890.434; in test [4] (MST raw response, Dose 1.5625e-7, single replicate run, listed as iCBP-4), 890.147 and 890.553 and 889.395; in test [4] (MST raw response, Dose 3.125e-7, single replicate run, listed as iCBP-4), 888.926 and 888.984 and 889.107. The “Response (Dose Response Curve)” value in test [4] (MST raw response, Dose 6.25e-7, single replicate run, listed as iCBP-4) is 888.767 and 888.447 and 889.182; in test [4] (MST raw response, Dose 1.25e-6, single replicate run, listed as iCBP-4), 887.998 and 889.672 and 887.288; in test [4] (MST raw response, Dose 2.5e-6, single replicate run, listed as iCBP-4), 887.993 and 886.376 and 888.472; in test [4] (MST raw response, Dose 5e-6, single replicate run, listed as iCBP-4) it was 887.809 and 888.569 and 888.97. Further, the “Response (Dose Response Curve (Outliers))” value in test [4] (MST raw response, Dose 3.05176e-10, point marked as outlier and left out of the fit) is given as 895.82. Also, the “Bound (Fit Results)” value in test [4] (fitted MST response of bound state, single replicate run, target clGFP-CBPBRD 5e-8, listed as iCBP-4) was 887.684 and 887.776 and 888.434. For the same molecule, the “Unbound (Fit Results)” value in test [4] (fitted MST response of unbound state, single replicate run, target clGFP-CBPBRD 5e-8, listed as iCBP-4) was 892.098 and 891.946 and 891.879. For the same molecule, the “loss of binding affinity (CBP)” value in test [4] (relative to CCS1477) is recorded as ~ 40 fold.

For `COC1CCC(n2c(C3CCCC(=O)N3c3ccc4c(c3)OCCO4)nc3cc(-c4c(C)noc4C)ccc32)CC1` (stereo not drawn) [Compound 7], the 50% inhibitory concentration (IC50) in test [1] is 452 ± 217 nM. The “Ratio CBP/BRD4 of ∆Tm” value in the test with CBP bromodomain [2] is listed as 2.2. At CBP bromodomain [3], the “∆Tm (°C) CBP” value was 15.5 ± 0.14 °C and the “DSF ΔTm (°C)” value came to 15.5 °C. Besides, the “ΔTm (°C) CBP” value on CBP bromodomain [3] (Figure 3A, CBP bromodomain) came out at 15.5 °C. At CBP bromodomain [3] (Figure 3B, CBP), the “ΔTm (°C) CBP” value came to 15.5 °C. For the same molecule, at EP300 bromodomain, the “∆Tm (°C) EP300” value came out at 13.5 ± 0.89 °C and the “ΔTm (°C) EP300” value turned out to be 13.5 °C. Also, on BRD4-BD1 (BRD4-1), the “∆Tm (°C) BRD4-1” value amounted to 6.9 ± 0.23 °C and the “ΔTm (°C) BRD4-BD1” value was determined as 6.9 °C. Moreover, in test [4] (MO.Affinity Analysis export, single runs, target clGFP-CBPBRD 5e-8, unit inferred, read-out: Kd (fit result of individual MST run)), the dissociation constant (Kd) is 15.5 nM and 27.7 nM and 7.4 nM. In addition, the Kd in test [4] (setting [5]) was 17 nM and 16.9 nM.
